This note sets out measurements from patent publication US12275731B2, “Azaindole inhibitors of wild-type and mutant forms of LRRK2” (DANA-FARBER CANCER INSTITUTE, INC., priority 2018, dated 2025).

Test in all cases: KinomeScan profiling
What all share (assay type): binding

One test concerns the target PAK1 (Homo sapiens, UniProt Q13153). The settings on record: PAK1, 1 μM; read-out: % control. An outline of the steps:
(§1)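 First, compounds in DMSO are added at 1 μM to each of 468 kinase assays. Next, RLU signals are normalised between positive control (0%) and DMSO (100%). Finally, kinases under 35% are flagged active.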

The next test concerns the target T1, STK35 (Homo sapiens, UniProt Q8TDR2).
T1 construct: purchased KinomeScan® (panel service)
The settings on record: STK35, 1 μM; read-out: % control. An outline of the steps:
as §1

In another test the target is PRKCQ (Homo sapiens, UniProt Q04759). The settings on record: read-out: % control. An outline of the steps:
as §1

The target of test [1] is T2, RPS6KA4(Kin.Dom.2-C-terminal) (Homo sapiens, UniProt O75676).
T2 construct: RPS6KA4(Kin.Dom.2-C-terminal)
The settings on record: read-out: % control. The essentials: as §1

Test [2] addresses T3, RPS6KA5(Kin.Dom.2-C-terminal) (Homo sapiens, UniProt O75582).
T3 construct: RPS6KA5(Kin.Dom.2-C-terminal)
The settings on record: read-out: % control. The essentials: as §1

The target in another test is CAMKK2 (Homo sapiens, UniProt Q96RR4). Particulars: CAMKK2, 1 μM; read-out: % control. The essentials:
as §1

In the next test the target is T4, MLCK (Homo sapiens, UniProt Q32MK0).
T4 sequence (Q32MK0 1-819): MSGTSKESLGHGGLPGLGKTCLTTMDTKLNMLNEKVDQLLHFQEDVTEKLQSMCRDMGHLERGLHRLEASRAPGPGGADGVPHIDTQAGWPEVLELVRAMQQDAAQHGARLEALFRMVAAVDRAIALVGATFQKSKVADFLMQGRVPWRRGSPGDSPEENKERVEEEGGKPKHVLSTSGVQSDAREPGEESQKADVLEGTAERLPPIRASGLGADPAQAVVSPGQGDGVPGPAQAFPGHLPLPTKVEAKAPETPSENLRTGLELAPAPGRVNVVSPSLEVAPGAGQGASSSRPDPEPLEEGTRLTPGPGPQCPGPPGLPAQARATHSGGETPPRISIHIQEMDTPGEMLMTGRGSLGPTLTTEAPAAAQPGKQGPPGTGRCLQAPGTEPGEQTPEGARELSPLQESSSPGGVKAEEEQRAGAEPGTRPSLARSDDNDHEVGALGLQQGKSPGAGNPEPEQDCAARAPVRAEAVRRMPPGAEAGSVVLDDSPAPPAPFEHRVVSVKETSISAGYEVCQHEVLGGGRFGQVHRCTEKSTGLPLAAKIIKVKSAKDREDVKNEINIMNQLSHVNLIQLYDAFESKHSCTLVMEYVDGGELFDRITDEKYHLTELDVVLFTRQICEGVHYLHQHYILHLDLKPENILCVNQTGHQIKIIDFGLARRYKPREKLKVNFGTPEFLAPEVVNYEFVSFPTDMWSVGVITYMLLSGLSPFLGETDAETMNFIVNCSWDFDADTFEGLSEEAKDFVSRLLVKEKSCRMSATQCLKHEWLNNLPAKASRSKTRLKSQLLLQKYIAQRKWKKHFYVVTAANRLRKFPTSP
The settings on record: read-out: % control. The essentials:
as §1

Another test concerns the target T5, IRAK4 (Homo sapiens, UniProt Q9NWZ3).
T5 construct: purchased KinomeScan®
T5 sequence (Q9NWZ3 1-460): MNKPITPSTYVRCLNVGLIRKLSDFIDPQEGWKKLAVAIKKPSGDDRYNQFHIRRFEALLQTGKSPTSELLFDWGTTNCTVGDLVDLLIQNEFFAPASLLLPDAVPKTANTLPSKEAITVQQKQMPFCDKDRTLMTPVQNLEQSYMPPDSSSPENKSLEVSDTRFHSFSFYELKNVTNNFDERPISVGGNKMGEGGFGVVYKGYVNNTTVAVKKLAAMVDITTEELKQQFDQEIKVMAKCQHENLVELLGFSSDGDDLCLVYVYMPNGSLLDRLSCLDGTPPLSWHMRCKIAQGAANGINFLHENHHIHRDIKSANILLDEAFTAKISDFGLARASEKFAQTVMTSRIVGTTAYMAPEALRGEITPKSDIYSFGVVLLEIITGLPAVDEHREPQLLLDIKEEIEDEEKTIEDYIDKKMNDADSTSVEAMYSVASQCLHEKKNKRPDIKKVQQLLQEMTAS
Particulars: IRAK4, 1 μM; read-out: % control. An outline of the steps:
as §1

Test [3] addresses T6, ABL1(T315I)-phosphorylated (Homo sapiens, UniProt P00519, T315I).
T6 construct: purchased KinomeScan®
The settings on record: read-out: % control. An outline of the steps: as §1

The target in a further test is T7, ZAP70 (Homo sapiens, UniProt P43403).
T7 sequence (P43403 1-619): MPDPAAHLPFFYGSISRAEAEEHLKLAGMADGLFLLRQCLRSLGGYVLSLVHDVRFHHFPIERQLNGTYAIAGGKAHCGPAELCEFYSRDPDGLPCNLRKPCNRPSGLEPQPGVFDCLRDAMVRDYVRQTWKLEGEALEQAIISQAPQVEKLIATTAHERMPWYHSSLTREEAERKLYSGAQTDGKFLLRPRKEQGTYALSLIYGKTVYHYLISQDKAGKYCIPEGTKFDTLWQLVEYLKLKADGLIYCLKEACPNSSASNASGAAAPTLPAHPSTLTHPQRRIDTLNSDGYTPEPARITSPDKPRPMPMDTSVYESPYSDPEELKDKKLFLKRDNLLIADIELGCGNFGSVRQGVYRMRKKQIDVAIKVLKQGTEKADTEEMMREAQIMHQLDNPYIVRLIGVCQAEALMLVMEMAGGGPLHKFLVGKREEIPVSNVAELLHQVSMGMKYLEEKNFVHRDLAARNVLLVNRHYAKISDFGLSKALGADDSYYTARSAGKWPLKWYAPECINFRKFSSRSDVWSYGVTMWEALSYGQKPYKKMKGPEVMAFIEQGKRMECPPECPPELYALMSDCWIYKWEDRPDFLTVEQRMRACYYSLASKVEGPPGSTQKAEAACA
Particulars: ZAP70, 1 μM; read-out: % control. An outline of the steps:
as §1

A further test concerns the target DYRK1A (Homo sapiens, UniProt Q13627). The settings on record: read-out: % control. An outline of the steps: as §1

Chain of CAMKK2 (Q96RR4 whole entry): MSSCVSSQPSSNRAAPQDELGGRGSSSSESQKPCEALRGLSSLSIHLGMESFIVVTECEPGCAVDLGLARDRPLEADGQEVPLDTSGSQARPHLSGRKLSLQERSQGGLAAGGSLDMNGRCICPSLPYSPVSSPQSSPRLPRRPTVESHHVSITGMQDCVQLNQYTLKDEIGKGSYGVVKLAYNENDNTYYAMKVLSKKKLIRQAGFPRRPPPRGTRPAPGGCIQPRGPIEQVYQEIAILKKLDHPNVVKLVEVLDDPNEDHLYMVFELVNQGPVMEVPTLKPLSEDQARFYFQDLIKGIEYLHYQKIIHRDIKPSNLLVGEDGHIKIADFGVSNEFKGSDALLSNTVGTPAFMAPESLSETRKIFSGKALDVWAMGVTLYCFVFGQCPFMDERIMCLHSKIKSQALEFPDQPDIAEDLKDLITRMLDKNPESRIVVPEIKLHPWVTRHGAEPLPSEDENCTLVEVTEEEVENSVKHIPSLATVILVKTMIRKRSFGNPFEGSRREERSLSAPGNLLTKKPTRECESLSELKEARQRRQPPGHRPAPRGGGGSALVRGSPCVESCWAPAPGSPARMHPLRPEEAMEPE
T2 sequence (O75676 411-674 limits assumed): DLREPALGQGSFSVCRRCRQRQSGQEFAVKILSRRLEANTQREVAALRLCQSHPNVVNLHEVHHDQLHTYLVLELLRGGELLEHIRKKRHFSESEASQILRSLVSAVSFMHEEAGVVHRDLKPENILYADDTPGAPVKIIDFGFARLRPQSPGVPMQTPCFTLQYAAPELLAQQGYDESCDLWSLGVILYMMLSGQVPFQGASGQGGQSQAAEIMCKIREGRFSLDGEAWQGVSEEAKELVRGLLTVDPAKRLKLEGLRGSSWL
T3 sequence (O75582 426-687 limits assumed): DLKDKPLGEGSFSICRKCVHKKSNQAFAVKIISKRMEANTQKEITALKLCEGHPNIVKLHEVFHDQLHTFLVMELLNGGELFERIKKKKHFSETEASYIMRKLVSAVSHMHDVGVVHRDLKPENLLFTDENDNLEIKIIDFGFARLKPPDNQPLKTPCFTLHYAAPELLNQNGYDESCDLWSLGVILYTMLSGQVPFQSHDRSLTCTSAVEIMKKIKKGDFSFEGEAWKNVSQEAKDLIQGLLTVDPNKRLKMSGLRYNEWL
T1 sequence (Q8TDR2 whole entry): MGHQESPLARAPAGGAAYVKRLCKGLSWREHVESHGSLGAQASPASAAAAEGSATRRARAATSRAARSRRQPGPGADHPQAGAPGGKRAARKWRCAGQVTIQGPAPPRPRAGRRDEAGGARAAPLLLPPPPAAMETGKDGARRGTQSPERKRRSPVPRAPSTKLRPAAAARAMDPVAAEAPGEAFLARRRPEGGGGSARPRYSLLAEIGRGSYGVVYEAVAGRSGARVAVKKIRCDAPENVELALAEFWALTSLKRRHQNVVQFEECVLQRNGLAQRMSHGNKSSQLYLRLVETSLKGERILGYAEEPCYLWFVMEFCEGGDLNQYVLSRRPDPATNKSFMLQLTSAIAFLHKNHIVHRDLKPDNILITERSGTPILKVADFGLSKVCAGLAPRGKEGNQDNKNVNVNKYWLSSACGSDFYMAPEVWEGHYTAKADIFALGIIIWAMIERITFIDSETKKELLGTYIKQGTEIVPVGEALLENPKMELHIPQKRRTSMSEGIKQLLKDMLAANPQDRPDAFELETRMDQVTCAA
Chain of PAK1 (Q13153 whole entry): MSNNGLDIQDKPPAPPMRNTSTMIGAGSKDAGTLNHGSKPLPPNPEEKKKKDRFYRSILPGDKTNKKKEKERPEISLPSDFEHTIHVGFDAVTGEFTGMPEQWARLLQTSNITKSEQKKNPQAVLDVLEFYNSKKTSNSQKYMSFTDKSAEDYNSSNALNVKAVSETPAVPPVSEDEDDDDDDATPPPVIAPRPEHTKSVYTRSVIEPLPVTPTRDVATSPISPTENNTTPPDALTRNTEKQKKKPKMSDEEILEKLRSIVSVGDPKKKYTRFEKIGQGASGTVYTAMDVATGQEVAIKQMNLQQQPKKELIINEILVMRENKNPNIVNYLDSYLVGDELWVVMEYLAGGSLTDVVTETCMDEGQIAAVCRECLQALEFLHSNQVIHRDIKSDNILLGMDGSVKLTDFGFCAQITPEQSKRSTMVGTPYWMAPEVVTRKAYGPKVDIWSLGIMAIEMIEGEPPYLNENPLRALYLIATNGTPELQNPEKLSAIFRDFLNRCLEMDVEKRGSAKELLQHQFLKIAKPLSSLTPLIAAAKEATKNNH
Chain of PRKCQ (Q04759 whole entry): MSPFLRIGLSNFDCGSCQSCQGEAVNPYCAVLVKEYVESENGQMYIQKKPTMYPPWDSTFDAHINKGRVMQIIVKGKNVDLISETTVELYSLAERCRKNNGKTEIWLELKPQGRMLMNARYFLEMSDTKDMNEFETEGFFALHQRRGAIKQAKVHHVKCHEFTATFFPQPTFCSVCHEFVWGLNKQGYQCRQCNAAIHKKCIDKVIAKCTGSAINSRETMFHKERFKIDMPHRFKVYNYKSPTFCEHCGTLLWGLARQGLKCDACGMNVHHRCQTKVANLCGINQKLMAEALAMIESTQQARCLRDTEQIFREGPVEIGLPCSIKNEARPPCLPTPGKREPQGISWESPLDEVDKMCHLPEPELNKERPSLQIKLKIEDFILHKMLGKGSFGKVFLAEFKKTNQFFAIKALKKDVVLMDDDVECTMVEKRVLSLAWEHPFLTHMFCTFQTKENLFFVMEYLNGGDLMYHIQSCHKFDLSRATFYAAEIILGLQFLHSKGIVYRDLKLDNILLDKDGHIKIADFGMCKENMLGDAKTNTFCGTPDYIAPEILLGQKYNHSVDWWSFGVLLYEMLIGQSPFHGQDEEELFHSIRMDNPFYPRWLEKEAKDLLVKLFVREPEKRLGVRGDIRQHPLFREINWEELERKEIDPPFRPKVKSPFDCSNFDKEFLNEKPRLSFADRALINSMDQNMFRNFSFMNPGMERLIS

Turning to `CNc1c(-c2ccc(C(=O)N3CCC(N4CCOCC4)CC3)cc2)cnc2[nH]cc(Cl)c12` [Compound 96, (4-(3-chloro-4-(methylamino)-1H-pyrrolo[2,3-b]pyridin-5-yl)phenyl)(4-morpholinopiperidin-1-yl)methanone], the remaining binding at 1 µM on PAK1 turned out to be 99%; on STK35 it was 50%; at PRKCQ it was 76%; in test [1], 65%; in test [2], 100%; at CAMKK2 it was 82%. In addition, the remaining binding at 1 µM turned out to be 5% on MLCK; 62% at IRAK4; 52% in test [3]; 100% at ZAP70; 69% at DYRK1A.
Regarding `O=C(c1ccc(-c2cnc3[nH]cc(Cl)c3c2NC2CCCC2)cc1)N1CCC(N2CCOCC2)CC1` [Compound 101, (4-(3-chloro-4-(cyclopentylamino)-1H-pyrrolo[2,3-b]pyridin-5-yl)phenyl)(4-morpholinopiperidin-1-yl)methanone], the remaining binding at 1 µM on PAK1 came out at 100%; on STK35, 99%; on PRKCQ, 45%; in test [1], 99%; in [2], 96%; at CAMKK2, 88%. Further, the remaining binding at 1 µM came out at 100% on MLCK; 100% on IRAK4; 95% in test [3]; 55% on ZAP70; 4% at DYRK1A.
On to `CNc1c(-c2cnn([C@H]3CCN(C(C)=O)C[C@@H]3F)c2)cnc2[nH]cc(Cl)c12` [Compound 77, 1-((3S,4S)-4-(4-(3-chloro-4-(methylamino)-1H-pyrrolo[2,3-b]pyridin-5-yl)-1H-pyrazol-1-yl)-3-fluoropiperidin-1-yl)ethan-1-one], for which the remaining binding at 1 µM on PAK1 amounted to 99%; on STK35 it was 63%; at PRKCQ, 91%; in test [1], 90%; in test [2] it was 100%; at CAMKK2, 79%. Further, the remaining binding at 1 µM at MLCK turned out to be 13%; at IRAK4 it was 26%; in [3], 31%; at ZAP70 it was 100%; at DYRK1A, 58%.
